“And” between values parts separate entries of the source, which are not always exact repeats. Equal values may be shown once. “Also recorded” adds a separate entry of the source.
Assays:
β2AR [1] = biological target: T1, β2AR (Homo sapiens, UniProt P07550); experiment: cAMP FRET sensor (TEpacVV) agonist assay in HEK 293 cells; type: cell-based; settings: HEK 293 expressing 3′,5′-cAMP FRET sensor, 30 min incubation, room temperature; for EC50: read-out: EC50 (mean ± SD)
Protocol: Upon cAMP binding, the sensor undergoes a conformational change resulting in a decrease of the FRET efficiency between two fluorescent proteins: mTurquoise - a version of cyan fluorescent protein (CFP) as the donor, and yellow fluorescent protein (YFP) as the acceptor (Fig. 3a).
The intracellular cyclic adenosine monophosphate (cAMP) levels were determined with HEK 293 cells expressing a 3′,5′-cAMP FRET sensor. The cells were a generous gift from Ruud Hovius from École poly-technique fédérale de Lausanne (EPFL). The cAMP production induces a conformational switch in ^TEpac^VV and causes a decrease in FRET efficiency, i.e. a decreased energy transfer between the two fluorescent proteins (donor mTurquoise and acceptor YFP)[32].
(§1) The culture was maintained by subculturing the cells every 4 to 5 days using the standard trypsinization procedure. Before measurements, cells were trypsinated and transferred in a 96-well glass bottom plate (MatTek Corporation; Cat. No. P96GC-1.5–5-F) to contain 10,000–30,000 cells per well in 200 µL of DMEM media. After 24 h incubation in 5% CO2 at 37 °C, the cells were washed with HBSS pH 7.2 (200 µL), and the wells were filled with 200 µL HBSS. The DMSO stock solutions of the fluorescent probes were diluted 5,000 times in HBSS and used in experiments. […] The fluorescent ligand solutions of different concentrations in HBSS were premixed with the isoprenaline solution. 50 µL of a final solution was added to each well and the measurement was started upon addition and continued for 1 h in 10 min intervals between the readouts (inclusive).
(§2) The ligands were added using an automated pipette to initiate the sensor response. FRET readout from the cAMP sensor was performed on a multiwell plate reader Spark 20 M (Tecan) at room temperature (25 °C). Fluorescence readout amplitudes were calculated from time series for different ligand concentrations, following background subtraction (media only). […] Data were derived from 3 independent experiments and each independent experiment was performed in triplicate.
(§3) Sensor response R(CFP/FRET) was calculated using (1):1 R(CFP/FRET)=(FimTurquoise−FbkgmTurquoise)/(FiFRET−FbkgFRET) where F i ^mTurquoise – mTurquoise fluorescence intensity in the wells with cells; F bkg ^mTurquoise - mTurquoise fluorescence intensity in the control wells without cells; F i ^FRET – FRET signal intensity in the wells with cells; F bkg ^FRET – FRET signal intensity in the control wells without cells. For every result, R(CFP/FRET) ratio was normalized to the R(CFP/FRET) response of DMSO sample.

β2AR-YFP fusion protein [2] = biological target: T2, β2AR-YFP fusion protein (Homo sapiens, UniProt P07550); experiment: Confocal imaging of living U2OS cells expressing β2AR-YFP (staining, internalization, competitive displacement, no-wash); type: cell-based; settings: for Receptor internalization / Staining performance: U2OS cells expressing β2AR-YFP; for Staining performance: 610CP ligands at 1.9 µM (19) and 2.5 µM (16)
T2 construct: host or cells: U2OS
T2 sequence (P07550 whole entry, the tested form may be a part): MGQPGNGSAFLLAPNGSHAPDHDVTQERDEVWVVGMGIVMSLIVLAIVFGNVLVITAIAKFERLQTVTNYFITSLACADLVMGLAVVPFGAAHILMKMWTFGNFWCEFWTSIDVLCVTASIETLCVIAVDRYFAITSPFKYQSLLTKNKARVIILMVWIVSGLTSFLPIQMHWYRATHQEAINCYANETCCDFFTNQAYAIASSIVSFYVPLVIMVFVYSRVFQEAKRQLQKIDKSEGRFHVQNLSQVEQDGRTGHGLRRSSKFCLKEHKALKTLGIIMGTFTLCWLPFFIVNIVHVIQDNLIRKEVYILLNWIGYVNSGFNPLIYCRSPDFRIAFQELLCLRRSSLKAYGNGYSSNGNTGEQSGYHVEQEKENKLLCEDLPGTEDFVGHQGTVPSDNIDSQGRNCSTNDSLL
Protocol: U2OS cells (ATCC) were cultured in high-glucose DMEM (Dulbecco’s Modified Eagle medium, Thermo Fisher Scientific) supplemented with GlutaMAX-1 (Thermo Fisher Scientific) and 10% fetal bovine serum (FBS) (Thermo Fisher Scientific) in a humidified 5% CO2 incubator at 37 °C. CAPAN-1 cells (ATCC) were cultured in McCoy’s 5a Medium Modified supplemented with 10% fetal bovine serum (FBS) (Thermo Fisher Scientific) in a humidified 5% CO2 atmosphere at 37 °C. Cells were split every 3–5 days or at confluence. Cells were seeded in glass bottom 12-well plates (MatTek Corporation). […] We used 200,000 cells per well, 3 µg plasmid DNA and 3 µl of Lipofectamine 2000.
We performed imaging 48–72 h after transfection. Staining of the transfected cell was performed in Hanks’ balanced salt solution (HBSS, Lonza) without Phenol Red for 30–40 min at room temperature (to minimize internalization). Samples were washed two times with HBSS, and cells were imaged in DMEM (Thermo Fisher Scientific) supplemented with GlutaMAX-1 (Thermo Fisher Scientific) and 10% fetal bovine serum (FBS). For all staining experiments with cells, stock solutions of dyes in DMSO were used, and final DMSO content was < 0.5%. Imaging was performed on Leica SP8 (Leica Microsystems) or Abberior STED (Abberior Instruments GmbH) microscopes.
Competitive displacement experiment was performed in living U2OS cells expressing β2AR-YFP fusion protein.
Confocal imaging was performed on a Leica SP8 (Leica Microsystems, Mannheim, Germany) inverted confocal microscope equipped with an HC PL APO CS2 63x/1.40 Oil objective. Images were acquired using a 700 Hz bidirectional scanner, pixel size of 70 nm × 70 nm, pinhole of 95.6 µm diameter(1 AU) and frame averaging of 2.

[3] = Fluorescence increase upon addition of SDS to probe solutions; type: physicochemical; settings: addition of 0.1% SDS to ligand in PBS pH 7.4 with 1 mg/ml BSA; mean ± SD, n=3
Protocol: Fluorescence spectra of 1 µM solution of fluorescent dyes and ligands in PBS pH 7.4, PBS pH 7.4 + 1 mg/ml BSA (Sigma) and with or without 0.1% SDS (Acros Organics) were recorded on a multiwell plate reader Spark 20 M (Tecan) in half-area black 96-well plates (Greiner Bio-One, cat. 675076) at room temperature (25 °C) after 2 h incubation. Fluorescence emission was recorded from 600 nm to 800 nm with excitation at 580 nm. The emission bandwidth for all measurements was set to 5 nm. The spectra were averaged from 3 individual experiments. Ratios F(BSA+SDS)/F(BSA) of fluorescence signals at 635 nm for 610CP, 645 nm for BODIPY 630/650-X and 655 nm for KK114 conjugates were calculated. The obtained results are summarized (Table 1 and Supplementary Fig. 7).

β1- and β2-adrenoceptors = system: β1- and β2-adrenoceptors; design: method as in PMID 19875286; settings: racemic BI-167107; cited from earlier work
β2AR [4] = biological target: T1, β2AR; experiment: Staining and competitive binding in CAPAN-1 cells at endogenous β2AR expression; type: cell-based; settings: 100 nM probe (5 nM ab118171) with 10 µM BI-167107 or carazolol
Protocol: To study the selectivity of β2AR staining at the endogenous expression levels, which are much lower compared to those in transiently β2AR expressing U2OS cells, we tested the performance of BI-167107 probes in pancreatic CAPAN-1 cells (Fig. 7c–f). […] Low density of β2AR in the plasma membrane of CAPAN-1 cells allowed us to measure of the lateral resolution in the STED images. When the cells were incubated with 100 nM BI-PEG-KK114 (18) ligand, we observed two-fold improvement in the resolution resulting in apparent structures of ~100 nm (Fig. 7d; Supplementary Table 4).
For staining of CAPAN-1 cells, fluorescent probes or mixtures of a probe and a competitor were incubated in McCoy’s 5a Medium Modified supplemented with 10% fetal bovine serum (FBS) for 30–40 min at room temperature. Afterwards, the samples were washed two times with HBSS, and cells were imaged in DMEM (Thermo Fisher Scientific) supplemented with GlutaMAX-1 (Thermo Fisher Scientific) and 10% fetal bovine serum (FBS). Imaging performed on Leica SP8 (Leica Microsystems) or Abberior STED (Abberior Instruments GmbH) microscopes.

[5] = pH dependence of ligand fluorescence; type: physicochemical
Protocol: pH dependence of βAR ligands fluorescence were recorded on a multiwell plate reader Spark 20 M (Tecan) in 96-well glass bottom plates (MatTek Corporation; Cat. No. PBK96G-1.5-5-F) in PBS solutions (pH 4.7–8.0) at room temperature (25 °C). The 100x stock solutions of ligands were prepared in DMSO.

β2AR [6] = biological target: T1, β2AR; experiment: cAMP FRET sensor assay, competitive displacement of isoprenaline by antagonists in HEK293 cells; type: cell-based
Protocol: as §1, with “experiments. In the antagonist inhibition experiment, we used β1 and β2 adrenoceptor agonist isoprenaline (abcr GmbH) as a positive control causing cAMP elevation.” for “experiments.”
as §2, §3
K i ^app were calculated using the Cheng-Prusoff equation (2):2 Kiapp=IC50/[A]/EC50+1 where [A] – concentration of the isoprenaline; IC50 – fitted half maximal inhibitory concentration of labeled antagonist; EC50 – fitted half maximal response concentration of isoprenaline.

β2AR-YFP fusion protein [7] = biological target: T2, β2AR-YFP fusion protein; experiment: Confocal imaging of living U2OS cells expressing β2AR-YFP (staining, internalization, competitive displacement, no-wash); type: cell-based; settings: 90 min, 100 nM carazolol-KK114 (24), 5 nM ab118171, no washing
[8] = U2OS β2AR-YFP, 40 min, room temperature, washed

T1 sequence (P07550 whole entry): as the sequence (P07550 whole entry, the tested form may be a part) above

Row | SMILES | EC50 (mean ± SD, nM) (β2AR [1]) | EC50 (β2AR [1]) | Receptor internalization (β2AR-YFP fusion protein [2]) | Staining performance (β2AR-YFP fusion protein [2]) | Fluorescence increase (F BSA+SDS / F BSA) [3] | Competitive displacement (β2AR-YFP fusion protein [2]; U2OS β2AR-YFP, 100 nM probe (5 nM ab118171) with 10 µM unlabeled BI-167107 or carazolol, 30 min) | confocal staining at 100 nM (β2AR-YFP fusion protein [2]; [8]) | confocal staining at 250 nM (β2AR-YFP fusion protein [2]; [8]) | fluorescence decrease ([5]; at pH 4.7 and 8.0 versus pH 6.0–7.0) | IC50 (β2AR [6]; displacement of 17 nM isoprenaline, readout immediately after addition of ligands (0 min), read-out: IC50 (mean ± SD)) [nM] | Ki (β2AR [6]; read-out: Ki app (mean ± SD)) [nM] | confocal staining at 5 nM (β2AR-YFP fusion protein [2]; U2OS β2AR-YFP, 5 nM, 40 min, room temperature, washed) | fluorescence reduction ([5]; pH 7.0 compared to pH 4.7) | no-wash imaging staining (β2AR-YFP fusion protein [7]) | agonist classification at β-adrenoceptors (β1- and β2-adrenoceptors) | competitive binding with excess unlabeled ligand (β2AR [4])
1 | Cc1c(CCC(=O)NCCCCNC(=O)c2ccc(C(=O)[O-])c(C3=C4C=CC(=[N+](C)C)C=C4C(C)(C)c4cc(N(C)C)ccc43)c2)cccc1CC(C)(C)NCC(O)c1ccc(O)c2c1OCC(=O)N2 (stereo not drawn) [BI-4C-610CP (16)] | low nanomolar | 7.3 ± 1.4 nM | Yes | satisfactory images; also recorded: Medium | 1.5±0.4 |  |  |  |  |  |  |  |  |  |  | 
2 | Cc1ccccc1CC(C)(C)NCC(O)c1ccc(O)c2c1OCC(=O)N2 (stereo not drawn) [BI-167107] |  |  |  |  |  |  |  |  |  |  |  |  |  |  | full agonist | 
3 | Cc1c(CCC(=O)NCCOCCOCCNC(=O)c2ccc(C(=O)[O-])c(C3=C4C=CC(=[N+](C)C)C=C4C(C)(C)c4cc(N(C)C)ccc43)c2)cccc1CC(C)(C)NCC(O)c1ccc(O)c2c1OCC(=O)N2 (stereo not drawn) [BI-PEG-610CP (19)] | low nanomolar | 0.6 nM and 0.62 nM |  | None | 1.2±0.3 |  |  |  |  |  |  |  |  |  |  | 
4 | Cc1c(CCC(=O)NCCOCCOCCNC(=O)CCCCCNC(=O)COc2ccc(/C=C/C3=[N+]4C(=Cc5ccc(-c6cccs6)n5[B-]4(F)F)C=C3)cc2)cccc1CC(C)(C)NCC(O)c1ccc(O)c2c1OCC(=O)N2 (stereo not drawn) [BI-PEG-BDY630 (17)] |  | 0.2 nM and 0.18 nM | Yes | Strong | 10.5±1.7 | Low background fluorescence | labelled the cells efficiently | unspecific fluorescence | about 40% |  |  |  |  |  |  | strong off-target staining
5 | CC(C)(CCNC(=O)CCOCCOCCNC(=O)COc1ccc(/C=C/C2=[N+]3C(=Cc4ccc(-c5cccs5)n4[B-]3(F)F)C=C2)cc1)NC[C@H](O)COc1cccc2[nH]c3ccccc3c12 [ab118171, reference compound] |  |  | Weak | Strong | 8.2±3.9 |  | non-specific dotted background | non-specific dotted background |  | 74.7 ± 36.3 | 4.8 ± 3.6 | specific membrane localized fluorescence | almost two-fold | strong off-target staining |  | not possible to achieve full displacement

From publication PMC5614969, “High-Affinity Functional Fluorescent Ligands for Human β-Adrenoceptors” (Scientific Reports, 2017)
